Experimental findings from publication PMC4415882 (Biochemistry, 2013) are described below.

In assay [1] the target is NPP (nucleotide pyrophosphatase/phosphodiesterase) (Xanthomonas citri, UniProt A0A0U5FM15, T90S). Conditions: read-out: average; average over substrates pNPP, Me-pNPP, bis-pNPP, dT-5'-pNPP (subsaturating); 0.1 M Tris-HCl pH 8.0, 0.5 M NaCl, 100 µM ZnCl2, 25 °C; competitive.
For assay [2], the target named is NPP (nucleotide pyrophosphatase/phosphodiesterase) (Xanthomonas citri, UniProt A0A0U5FM15, L123A). The following applies: read-out: average; average over substrates pNPP, Me-pNPP, bis-pNPP, dT-5'-pNPP (subsaturating); 0.1 M Tris-HCl pH 8.0, 0.5 M NaCl, 100 µM ZnCl2, 25 °C; competitive.

Consider `[O]=[V]([OH])([OH])[OH]` [vanadate], for which the results for the Ki in assay [1] and in assay [2] were 340 ± 140 µM and 154 ± 8 µM, respectively.
